Counter-ions that a name gives are not always drawn.
How the values were obtained:
[1] = test system: sterol 27-hydroxylase (CHO cells); experiment: Sterol 27-hydroxylase activity in CHO cells (metabolites in medium by GLC-MS); assay type: cell-based, Chinese hamster
Description: (§1) Bovine aortic endothelial (BAE) cells obtained from a slaughterhouse were plated at low density (2×10^5 cells/cm^2) in 100-mm dishes and were grown to confluence in Dulbecco's modified Eagle medium (DMEM) supplemented with 10% fetal bovine serum (FBS), 50 units/ml penicillin, and 50 units/ml streptomycin at 37° C. in a 5% CO2 atmosphere. The confluent monolayer was rinsed once with Hank's balanced salt solution, and 4 ml of DMEM containing 10% […] FBS and either 20 μM cholesterol dissolved in 2-hydroxypropyl-β-cyclodextrin or an equivalent amount of vehicle alone was added to each dish. Hep G2 cells and Chinese hamster ovary cells (CHO) were cultured under identical conditions and for the same length of time. At 24-h intervals, the media and cells were harvested. The medium obtained from each dish was analyzed for metabolites. Cells were pooled for immunoblot analysis.
(§2) Following acidification and extraction into ethyl acetate, the dried residue was saponified. In some studies, solvolysis was also done prior to extraction.
(§3) Using a Hewlett-Packard GLC-MS (Model #5890-5970) and a fused silica column (CP-sil 19 CB, 0.25 mm i.d., 25 m length; Chrompack, Raritan, N.J.), the appropriate TLC fractions were injected in the splitless mode with temperature programming from 260° C. to 270° C. at 1.0° C./min and a column head pressure of 5 psi.
(§4) For the C27 acid, the ion pair that was used was m/z […] [methyl ester acetate mol ion=476-60 (acetate)] and m/z 416, and for the C24 acid, m/z 370 [mol ion methyl ester acetate=430-60 (acetate)] and m/z 373.

[2] = test system: sterol 27-hydroxylase (BAE cells); experiment: Sterol 27-hydroxylase activity in BAE cells (metabolites in medium by GLC-MS); assay type: cell-based, bovine; conditions: for Proportion of C27 bile acid of total metabolite: cholesterol-supplemented medium; for Synthesis by BAE cells: amount in medium: delipidated FBS + 20 nmol/ml cholesterol
Description: as §1, §2, §3, §4

[3] = test system: sterol 27-hydroxylase (Hep G2 cells); experiment: Sterol 27-hydroxylase activity in Hep G2 cells (metabolites in medium by GLC-MS); assay type: cell-based; conditions: HEP G2 (n = 6), 72 h, 20 μM cholesterol; for Metabolites Derived from Sterol 27-Hydroxylase: 3βOH-5-cholen. a.: mean value of 2 dishes after solvolysis
Description: as §1, §2, §3, §4

[4] = test system: rabbit smooth muscle cells; experiment: Rabbit smooth muscle cell proliferation (formazan formation from MTS); assay type: cell-based; conditions: 24 hr; for Optical density of wells (cell proliferation, MTS formazan): 20 μm, 5% delipidated FBS, control wells 0.402±0.037
Description: Cell proliferation at 24 hr was measured using formazan formation from MTS which is known to correlate with the number of cells present in each well.

[5] = test system: cholesterol synthesis and accumulation; conditions: cited from earlier work
[6] = test system: K-12 cells; experiment: Cell proliferation of tumor cell line K-12; assay type: cell-based; conditions: K12, read-out: Concentration of 27-Hydroxycholesterol Yielding 50% Growth Inhibition; K-12 cells (adenocarcinoma line)
Source text: (§5) Conventional methods of cell culture were utilized in this experiment.

[7] = test system: HCT-8; experiment: Cell proliferation of tumor cell line HCT-8; assay type: cell-based; conditions: read-out: Concentration of 27-Hydroxycholesterol Yielding 50% Growth Inhibition; HCT-8 (human colon carcinoma)
Source text: as §5

[8] = test system: smooth muscle cells derived from rat aorta; experiment: Proliferation of smooth muscle cells derived from rat aorta; assay type: cell-based, rat (male Sprague-Dawley); conditions: 72 hr
Description: (§6) Smooth muscle cells were cultured according to Ross (J. Cell. Biol., 50:172, 1971) from the intima-medial layer of male Sprague-Dawley rats (200-250 g). Cells were grown in monolayers at 37° C. in a humidified atmosphere of 5% CO2 in MEM supplemented with 10% FBS, 100 U/ml penicillin, 0.1 mg/ml streptomycin, […] tricine buffer and 1% non-essential amino acid solution (Corsini et al, Atherosclerosis, 101:117, 1993). The medium was changed every third day. Cells were used between the 4th and 10th passage. Cell viability was assessed by trypan blue exclusion. Smooth muscle cells were identified for growth behavior, morphology, and using monoclonal antibody specific for α-actin, using the isoform typical for smooth muscle cells. Human vascular myocytes were taken from a human femoral artery and grown under the same culture conditions.
(§7) Smooth muscle cells derived from rat aorta were seeded at a density of 2×10^5 and those from the femoral artery at a density of 5×10^4. […] Cell proliferation was determined at 72 hr either by trypsinization of the monolayer and counting in a model ZM Coulter Counter or by incorporation of tritiated thymidine after a 3 hr incubation.

[9] = Nonfasted rabbits, treated
[10] = test system: L1210 cells; experiment: Cell proliferation of tumor cell line L1210; assay type: cell-based; conditions: read-out: Concentration of 27-Hydroxycholesterol Yielding 50% Growth Inhibition; L1210 cells (mouse leukemia cell line)
Source text: as §5

[11] = test system: hamster aortic smooth muscle cells; conditions: six days, at the tested concentration; cited from earlier work
[12] = test system: intimal thickening of abdominal aorta; experiment: Vascular injury model: balloon-injured rabbit aorta, intimal thickening by intimal/medial (I/M) ratio; assay type: in vivo, New Zealand white rabbits
Description: New Zealand white rabbits weighing 2.6 to 5.1 kgs were anesthetized with intramuscular ketamine 35 mg/kg. Additional injections of ketamine (100 mg/cc) and xylazine (20 mg/cc) in a 50/50 mixture were given as necessary in 1 ml increments. Keflin (Eli Lilly & Co.), 30/mg/kg was given intravenously (IV). A longitudinal incision was made on the medial aspect of the distal hind limb to expose the greater saphenous artery. Arteriotomy was performed, and a 3-F Fogarty embolectomy catheter (Edwards Laboratories, Santa Ana, Calif.) was introduced and advanced to the level of the diaphragmatic abdominal aorta. The catheter was withdrawn from the abdominal aorta with the balloon inflated to a pressure of about 20 mm hg. This maneuver was repeated for a total of three passes. The catheter was removed, and the saphenous artery was ligated. […]
The abdominal aortas were fixed by perfusion with glutaraldehyde at physiological pressure via a catheter (14G Intracath) placed in the left ventricle. […] The entire intimal and medial areas in more than 2 sections per specimen were measured using Lucida computer calculation (Micro Brightfield, Inc.). The degree of intimal thickening was determined by calculating the intimal to medial area (I/M) ratio. Statistical significance of the difference in intimal/medial ratio between groups was calculated using student t-test. […]

[13] = test system: smooth muscle cells derived from human femoral artery; experiment: Proliferation of smooth muscle cells derived from human femoral artery; assay type: cell-based; conditions: Human Femoral A, 72 hr, read-out: Percent of Control Growth
Description: as §6, §7

[14] = in hydroxypropyl-beta-cyclodextrin vehicle
[15] = test system: restenosis; conditions: high doses, cited from earlier work
[16] = test system: intimal proliferation; conditions: cited from earlier work
[17] = test system: HCT-8 cells; experiment: In vitro cytotoxicity test of uridyl derivative with HCT-8 cells (FIG. 1); assay type: cell-based, human
Source text: The results of the experimentation is illustrated in FIG. 1.

[18] = CHO (n = 3), 72 h, 20 μM cholesterol
[19] = BAE (n = 6), 72 h, 20 μM cholesterol

C[C@H](CCC(=O)O)[C@H]1CC[C@H]2[C@@H]3CC=C4C[C@@H](O)CC[C@]4(C)[C@H]3CC[C@]12C [3β-hydroxy-5-cholenoic acid]
Metabolites Derived from Sterol 27-Hydroxylase [1, 18]: not detected
Amount in the medium from CHO cells ([1]; compared with Hep G2 or BAE cells): small amount
Metabolites Derived from Sterol 27-Hydroxylase [2, 19]: not detected
Metabolites Derived from Sterol 27-Hydroxylase [3]: 1940 ± 270 pmol/mg/cell protein

CC(CCC[C@@H](C)[C@H]1CC[C@H]2[C@@H]3CC=C4C[C@@H](O)CC[C@]4(C)[C@H]3CC[C@]12C)C(=O)O (stereo partly drawn) [3β-hydroxy-5-cholestenoic acid]
Metabolites Derived from Sterol 27-Hydroxylase [1, 18]: 2 ± 1 pmol/mg/cell protein
Optical density of wells (cell proliferation, MTS formazan) [4]: 0.357±0.22
Metabolites Derived from Sterol 27-Hydroxylase [2, 19]: 474 ± 118 pmol/mg/cell protein
Proportion of C27 bile acid of total metabolite ([2]; BAE cells, 24 h): 3.8%
Proportion of C27 bile acid of total metabolite ([2]; BAE cells, 72 h): 17%
Synthesis by BAE cells: amount in medium ([2]; 24 h): 42.5 ± 6.1 pmol/ml medium
Synthesis by BAE cells: amount in medium ([2]; 48 h): 112 ± 12.4 pmol/ml medium
Synthesis by BAE cells: amount in medium ([2]; 72 h): 211 ± 48.3 pmol/ml medium
Metabolites Derived from Sterol 27-Hydroxylase [3]: 471 ± 126 pmol/mg/cell protein

CC(CN)CCC[C@@H](C)[C@H]1CC[C@H]2[C@@H]3CC=C4C[C@@H](O)CC[C@]4(C)[C@H]3CC[C@]12C (stereo partly drawn) [27-aminocholesterol]
Potency as inhibitor of cholesterol synthesis and accumulation relative to 27-hydroxycholesterol [5]: more potent

C[C@@H](CO)CCC[C@@H](C)[C@H]1CC[C@H]2[C@@H]3CC=C4C[C@@H](O)CC[C@]4(C)[C@H]3CC[C@]12C [27-hydroxycholesterol, cholest-5-ene-3β, 27-diol]
IC50 [6]: 3.7 µM
Amount present in medium from CHO cells (below the limit of detection) ([1]; 72 h, cholesterol-supplemented medium): < 10 ng per assay
Metabolites Derived from Sterol 27-Hydroxylase [1, 18]: not detected
Optical density of wells (cell proliferation, MTS formazan) [4]: 0.350±0.021
Reduction of optical density compared to control wells ([4]; p<0.01): significant reduction
IC50 [7]: 11.5 µM
activity at 1 µM ([8]; 1.0 μM, read-out: Percent of Control Growth): 90%
activity at 5 µM ([8]; 5.0 μM, p < 0.01, read-out: Percent of Control Growth): 40%
activity at 7.5 µM ([8]; 7.5 μM, read-out: Percent of Control Growth): 18%
Distribution of Plasma 27-Hydroxycholesterol, LDL [9]: 55%
IC50 [10]: 1.2 µM
Inhibition of proliferation [11]: about 50%
Reduction of the degree of intimal thickening as compared with the control group ([12]; Run II, 14 days): 1/2
activity at 1 µM ([13]; 1.0 μM): 100%
activity at 5 µM ([13]; 5.0 μM, p < 0.01): 53%
Metabolites Derived from Sterol 27-Hydroxylase [2, 19]: 2555 ± 348 pmol/mg/cell protein
Synthesis by BAE cells: amount in medium ([2]; 24 h): 1089 ± 111 pmol/ml medium
Synthesis by BAE cells: amount in medium ([2]; 48 h): 1064 ± 161 pmol/ml medium
Synthesis by BAE cells: amount in medium ([2]; 72 h): 1029 ± 99 pmol/ml medium
Metabolites Derived from Sterol 27-Hydroxylase [3]: 1622 ± 291 pmol/mg/cell protein
Viscosity of preparation [14]: very viscous

CC[C@H](C)C(=O)O[C@H]1C[C@@H](C)C=C2C=C[C@H](C)[C@H](CC[C@@H]3C[C@@H](O)CC(=O)O3)[C@H]21 [Lovastatin]
Restenosis ([15]; six months following percutaneous transluminal coronary angioplasty): did not decrease restenosis
LDL-cholesterol level [15]: markedly decrease

Cc1ccc(C(=O)Nc2ccc(S(=O)(=O)O)c3cc(S(=O)(=O)O)cc(S(=O)(=O)O)c23)cc1NC(=O)c1cccc(NC(=O)Nc2cccc(C(=O)Nc3cc(C(=O)Nc4ccc(S(=O)(=O)O)c5cc(S(=O)(=O)O)cc(S(=O)(=O)O)c45)ccc3C)c2)c1 [Suramin, suramin, reference compound]
Inhibition of intimal proliferation [16]: shown to inhibit intimal proliferation
Mean Intima/Media Ratio ([12]; Run I, 14-day, test group of 5 rabbits, suramin p < 0.05, 27-hydroxycholesterol 10 mg i.v. day before surgery, 5 mg day of surgery, 5 mg twice a day days 1 to 14, in 45% HPBCD): 0.4089 ± 0.034

CC(C)CCC[C@@H](C)[C@H]1CC[C@H]2[C@@H]3CC=C4C[C@@H](O)CC[C@]4(C)[C@H]3CC[C@]12C [cholesterol]
Metabolites Derived from Sterol 27-Hydroxylase, Total [1, 18]: 2 pmol/mg/cell protein
Metabolites Derived from Sterol 27-Hydroxylase, Total [2, 19]: 3029 pmol/mg/cell protein
Metabolites as percent of the cholesterol added to the medium ([2]; BAE cells, 20 nmol/ml cholesterol, 72 h): approximately 5.8%
Metabolites Derived from Sterol 27-Hydroxylase, Total [3]: 4033 pmol/mg/cell protein

C[C@@H](CO)CCC[C@@H](C)[C@H]1CC[C@H]2[C@@H]3CC=C4C[C@@H](OP(=O)(O)OC[C@H]5O[C@@H](n6ccc(=O)[nH]c6=O)[C@H](O)[C@@H]5O)CC[C@]4(C)[C@H]3CC[C@]12C [uridine derivative, sodium salt of 3-[(25R)-26-hydroxycholesteryl]5'-uridyl monophosphate]
Inhibition of cell viability: death of HCT-8 cells ([17]; 500 μM): cell death
Percentage of viable cells ([17]; 100 to 500 μM, after 5 days of exposure): drops dramatically

From patent publication US5773431A (priority 1997, dated 1998)
